Laboratory results as given in patent US12162836B2, “N-acyl-{4-[(4-aryl-phenyl)sulfonylmethyl]piperidine} compounds and their therapeutic use” (Modern Biosciences Limited, priority 2019, dated 2024).
pIC50: −log10 of the molar value.

Assays:
[1] = system: Thp1 human monocytic cells; experiment: Thp1 Monocyte ATP Production Assay (ATPlite); format: cell-based; conditions: for pIC50: Thp1 cells, 24 hour incubation, 9-point concentration range from 10 μM to 10 nM, mean of 2 independent experiments; for potency in the Thp1 monocytic ATP assay (in words): as compared to the reference compounds
Summary of the method: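 Thp1 cells in glucose-free RPMI-1640 with 1% FBS were treated with compounds for 24 h at 37 °C/5% CO2, then ATP measured by ATPlite luminescence. Signal expressed as % of control viability; IC50 from 4-parameter fit, mean of two experiments.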

[2] = Rodent Pharmacokinetics Studies; format: in vivo, rat; conditions: male Han Wistar rats; for i.v. AUC: 0.25 mg/kg intravenous; for Bioavail, F: oral vs intravenous; for half-life: rat, plasma
Excerpt: Absorption and metabolic stability were studied using an in vivo pharmacokinetics assay.
[…] Test compounds were formulated in 0.5% carboxymethylcellulose (CMC)/0.1% Tween-80 for administration via the oral route, or in 5% DMSO/10% solutol in saline for administration via the intravenous route. For compound HMC-C-01-A the oral administration was formulated in 2% dimethylacetamide/20% hydroxypropyl-β-cyclodextrin in water. Animals were given free access to food throughout the study except for fasting overnight and until 2 hours post dose on the day of dosing.
Blood samples were taken from the retro-orbital plexus at the following time points and placed in microtubes containing 20% K2EDTA solution:
Oral Dosing: predose; 0.25, 0.5, 1, 2, 4, 6, 8, 12 and 24 hours post dose.
Blood samples were centrifuged to obtain plasma, which was transferred to a separate container and frozen at −20° C.
For analysis, samples were thawed at room temperature and prepared by protein precipitation with acetonitrile spiked with internal standard (500 ng/mL glipizide) in the ratio 1:4 with plasma.
The pharmacokinetic parameters for the test compounds were calculated by Phoenix WinNonlin version 8.0 (Certara, CA) using standard non-compartmental methods. Peak plasma concentrations (Cmax) and time of the peak plasma concentration (Tmax) were the observed values. The area under the plasma concentration-time curve (AUC) was determined by use of the linear trapezoidal rule up to the last measurable concentration (AUClast) and thereafter by extrapolation of the terminal elimination phase to infinity (AUCinf). The elimination phase half-life (t1/2) was calculated as 0.693/kel.

human hepatocytes = experiment: Human Hepatocyte Stability; format: in vitro ADME; conditions: for metabolic stability (in words): human hepatocytes
Method: (§1) Metabolic stability of test compounds was measured by determination of the rate of disappearance of the compound when incubated in the presence of human hepatocytes, a primary source of the most important enzymes (cytochrome P450s) involved in drug metabolism. Study of drug stability in the presence of primary hepatocytes is accepted as a valuable model permitting rapid prediction of in vivo drug stability.
(§2) Human hepatocytes were obtained from a commercial source and viability was assessed using a trypan blue solution prior to use. Test compounds (final concentration 1 μM, 0.1 DMSO, 0.9% acetonitrile) or a marker (diclofenac or diltiazem, final assay concentration 1 μM, 0.1% DMSO, 0.9% acetonitrile) were incubated with pooled hepatocytes for a 60 minute period and samples removed at up to 6 time points and analysed by LC-MS/MS for the presence/amount of test compounds.
(§3) Each compound was incubated for 0, 5, 15, 30, 45, or 60 minutes. The reactions were stopped by the addition of methanol containing an internal standard (1 μM Tolbutamide) at the appropriate time points, mixed and placed at −20° C. for 1 hour to quench and allow protein to precipitate. All samples were centrifuged (2500× g, 20 minutes, 4° C.). The aliquots were analysed using LC-MS/MS. Reactions were performed in duplicate at 37° C.
(§4) Data were processed, and the results plotted as In(concentration) vs. time. The elimination rate constant (slope of the regression line, k) was calculated using the following formula, where C(t) is the concentration at time t and C(0) is the starting concentration:
(§5) The half-life (t1/2) was calculated using the following formula: […]
(§6) The intrinsic clearance (Clint) was calculated using the following formula, where [cell] is the hepatocyte concentration in the assay: […]

hERG ion channel = hERG ion channel (Homo sapiens (Human), UniProt Q12809); experiment: hERG Ion Channel binding assay (3H astemizole displacement)
Summary of the method: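 Membranes from stably transfected hERG-HEK293 cells incubated with 1.5 nM ³H-astemizole ± test compound in HEPES buffer pH 7.4 (0.1% BSA, 5 mM KCl, 130 mM NaCl) at 25° C for 60 min. Bound ligand measured by filtration and scintillation counting; reported as % displacement (0% none, 100% complete).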

[3] = Human Hepatocyte Stability; format: in vitro ADME; conditions: pooled human hepatocytes, 1 μM, 60 minute incubation; for half-life at 1 μM: read-out: Human t1/2
Method: as §1, §2, §3, §4, §5, §6

[4] = pooled human hepatocytes, 1 μM, 60 minute incubation

Sequence of hERG ion channel (Q12809 whole entry): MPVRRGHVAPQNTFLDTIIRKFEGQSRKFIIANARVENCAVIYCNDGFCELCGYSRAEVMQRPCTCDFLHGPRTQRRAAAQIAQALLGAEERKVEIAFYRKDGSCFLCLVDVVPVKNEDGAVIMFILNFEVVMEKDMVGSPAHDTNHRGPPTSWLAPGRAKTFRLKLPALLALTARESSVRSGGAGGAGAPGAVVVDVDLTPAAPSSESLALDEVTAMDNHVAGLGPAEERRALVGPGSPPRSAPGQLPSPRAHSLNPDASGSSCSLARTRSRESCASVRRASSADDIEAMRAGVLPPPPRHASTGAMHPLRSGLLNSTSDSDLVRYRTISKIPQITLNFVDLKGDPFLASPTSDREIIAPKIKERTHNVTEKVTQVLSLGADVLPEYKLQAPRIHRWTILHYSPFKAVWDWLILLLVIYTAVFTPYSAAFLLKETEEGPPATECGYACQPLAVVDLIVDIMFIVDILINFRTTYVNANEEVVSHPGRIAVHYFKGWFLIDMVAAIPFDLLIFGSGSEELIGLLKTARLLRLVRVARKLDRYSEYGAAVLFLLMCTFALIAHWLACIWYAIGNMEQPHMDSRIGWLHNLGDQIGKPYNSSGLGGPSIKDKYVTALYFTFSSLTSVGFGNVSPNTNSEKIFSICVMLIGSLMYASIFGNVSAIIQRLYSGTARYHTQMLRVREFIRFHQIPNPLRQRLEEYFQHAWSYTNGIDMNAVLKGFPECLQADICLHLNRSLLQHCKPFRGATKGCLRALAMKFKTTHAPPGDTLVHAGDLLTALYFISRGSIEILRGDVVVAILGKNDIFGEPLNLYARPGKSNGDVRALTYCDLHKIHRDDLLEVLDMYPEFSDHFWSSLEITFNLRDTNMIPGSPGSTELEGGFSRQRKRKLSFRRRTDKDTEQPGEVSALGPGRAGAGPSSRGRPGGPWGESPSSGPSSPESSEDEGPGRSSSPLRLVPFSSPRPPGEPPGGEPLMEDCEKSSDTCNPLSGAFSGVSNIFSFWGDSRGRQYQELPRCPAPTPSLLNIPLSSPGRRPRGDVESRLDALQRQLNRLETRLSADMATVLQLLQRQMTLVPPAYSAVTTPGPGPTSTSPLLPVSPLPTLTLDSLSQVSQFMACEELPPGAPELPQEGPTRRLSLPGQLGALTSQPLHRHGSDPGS

Row | i.v. AUC [2] [ng/mL/min] | Bioavail, F [2] [%] | pIC50 ([1]; Homo sapiens, THP-1) | p.o. AUC ([2]; 1.25 mg/kg orally) [ng/mL/min] | half-life [2] [h] | hepatocyte CLint at 1 μM [3] [µL/min/1e6 cells] | half-life at 1 μM [3] [h] | metabolic stability (in words) (human hepatocytes) | SMILES | pIC50 [1] | T1/2 [2] [h] | p.o. AUC ([2]; dosed at 5 mg/kg orally) | Human Clint (human hepatocytes; [4]) [uL/min/million cells] | Human t1/2 (human hepatocytes; [4]) [h] | cardiac safety profile, hERG (in words) (hERG ion channel) | potency in the Thp1 monocytic ATP assay (in words) [1]
1 |  |  | 5.85 |  |  | < 3.4 | > 6.88 | exceptionally good stability | CC(=O)N1CCC(CS(=O)(=O)c2ccc(-c3c(F)cccc3F)cc2)CC1 [NASMP-09, 1-(4-(((2′,6′-Difluoro-[1,1′-biphenyl]-4-yl)sulfonyl)methyl)piperidin-1-yl)ethan-1-one] |  |  |  |  |  | particularly positive profile | 
2 | 581 | >69 | 7.00 | 3160 | 5.1 |  |  | exceptionally good stability | CC(=O)N1CCC(CS(=O)(=O)c2ccc(-c3ccc(F)cc3F)cc2C(F)(F)F)CC1 [NASMP-12, 1-(4-(((2′,4′-Difluoro-3-(trifluoromethyl)-[1,1′-biphenyl]-4-yl)sulfonyl)methyl)piperidin-1-yl)ethan-1-one] |  |  |  |  |  |  | excellent potency
3 | 282 | >62 | 6.22 | 1750 | 4.9 |  | > 1 | exceptionally good stability | CCC(=O)N1CCC(CS(=O)(=O)c2ccc(-c3ccc(F)cc3F)cc2)CC1 [NASMP-15, 1-(4-(((2′,4′-Difluoro-[1,1′-biphenyl]-4-yl)sulfonyl)methyl)piperidin-1-yl)propan-1-one] |  |  |  |  |  |  | excellent potency

Second part, the compound before the results:

Row | SMILES | i.v. AUC [2] [ng/mL/min] | Bioavail, F [2] [%] | pIC50 ([1]; Homo sapiens, THP-1) | p.o. AUC ([2]; 1.25 mg/kg orally) [ng/mL/min] | half-life [2] [h] | hepatocyte CLint at 1 μM [3] [µL/min/1e6 cells] | half-life at 1 μM [3] [h] | metabolic stability (in words) (human hepatocytes) | pIC50 [1] | T1/2 [2] [h] | p.o. AUC ([2]; dosed at 5 mg/kg orally) | Human Clint (human hepatocytes; [4]) [uL/min/million cells] | Human t1/2 (human hepatocytes; [4]) [h] | cardiac safety profile, hERG (in words) (hERG ion channel) | potency in the Thp1 monocytic ATP assay (in words) [1]
4 | CC1(O)CCC(NS(=O)(=O)c2ccc(-c3ccc(F)cc3F)cc2)CC1 (centres unmarked) [ABD899, reference compound] | 2133 | 50 |  |  |  |  |  |  | 6.70 | 10.8 | 10740 ^(4) ng/mL/min | 9 | 2.48 |  | 
5 | CC(=O)N1CCC(CS(=O)(=O)c2ccc(-c3ccc(F)cc3F)cc2)CC1 [NASMP-01, 1-(4-(((2′,4′-Difluoro-[1,1′-biphenyl]-4-yl)sulfonyl)methyl)piperidin-1-yl)ethan-1-one] | 816 | 56 | 6.00 | 2299 | 6.6 | < 3 | > 7.67 | exceptionally good stability |  |  |  |  |  | particularly positive profile | excellent potency
6 | CC(=O)N1CCC(CS(=O)(=O)c2ccc(-c3ccc(C#N)cc3Cl)cc2)CC1 [NASMP-05, 4′-(((1-Acetylpiperidin-4-yl)methyl)sulfonyl)-2-chloro-[1,1′-biphenyl]-4-carbonitrile] |  |  | 5.96 |  |  |  |  | exceptionally good stability |  |  |  |  |  |  | 
7 | CC(=O)N1CCC(CS(=O)(=O)c2ccc(-c3ccc(Cl)cc3C#N)cc2)CC1 [NASMP-06, 4′-(((1-Acetylpiperidin-4-yl)methyl)sulfonyl)-4-chloro-[1,1′-biphenyl]-2-carbonitrile] | 349 | 24 | 6.05 | 3030 | 3.3 |  | > 1 | exceptionally good stability |  |  |  |  |  |  | 
8 | CC(=O)N1CCC(CS(=O)(=O)c2ccc(-c3ccc(C(F)(F)F)cc3F)cc2)CC1 [NASMP-07, 1-(4-(((2′-Fluoro-4′-(trifluoromethyl)-[1,1′-biphenyl]-4-yl)sulfonyl)methyl)piperidin-1-yl)ethan-1-one] |  |  | 6.10 |  |  | 1.1 | > 1 |  |  |  |  |  |  |  | excellent potency
